Source: PubChem BioAssay AID720688 (NMMLSC, 2013)
The source made the active and inactive calls.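 Rule for the calls: active = half-effect concentration at most 10 µM, response change at least 30% across doses, and a curve fit passing quality checks; inactive = the rest.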

Target: Cell division control protein 42 homolog (Homo sapiens) (UniProt P60953)
Assay: inhibition of fluorescent GTP binding to wildtype Cdc42 – biochemical, protein source comparison, flow cytometry beads, Bodipy-FL-GTP, mechanism study for Ras-family GTPase inhibitor project, late-stage follow-up (AID 720688)
Details: GST-Cdc42 beads

Chain of Cell division control protein 42 homolog (Homo sapiens) (P60953 whole entry, looked up): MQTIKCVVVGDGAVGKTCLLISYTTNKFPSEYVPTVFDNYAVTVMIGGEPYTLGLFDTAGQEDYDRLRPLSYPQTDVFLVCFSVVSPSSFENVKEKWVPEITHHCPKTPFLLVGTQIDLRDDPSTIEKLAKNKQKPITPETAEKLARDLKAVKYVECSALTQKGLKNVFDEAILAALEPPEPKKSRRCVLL

| Structure (SMILES) | EC50 (protein source 2) [µM] | % response remaining, lower = inhibition (protein source 2, at 100 µM (top of the series)) |
| --- | --- | --- |
| CC1(C)Cc2c(sc(NC(=S)NC(=O)c3cccc(N=[N+]=[N-])c3)c2C(=O)O)CO1 | 18.6 |  |
| CC1(C)Cc2c(sc(NC(=S)NC(=O)c3ccc(N=[N+]=[N-])cc3)c2C(=O)O)CO1 |  | inactive |
